Toxic doses and inconclusive results are not listed. Rule as the data show it: active = T/C of 150% or more; inactive = T/C below 125%.
Tested on: L1210 leukemia ip in BDF1 mice, survival T/C
Assay: NCI In Vivo Anticancer Drug Screen. Data for tumor model L1210 Leukemia (intraperitoneal) in B6D2F1 (BDF1) mice
Settings: endpoint: mean survival time, higher = longer survival
How it was run: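 Value reflects the ratio of survival in compound-treated mice to survival in vehicle-treated controls, with both groups carrying the same transplanted tumor.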

[1] = dose: 100.0 mg/kg/injection, schedule: Q01DX001 (ip), vehicle: Klucel (hydroxypropylcellulose) (HPC)
[2] = dose: 200.0 mg/kg/injection, schedule: Q01DX001 (ip), vehicle: Klucel (hydroxypropylcellulose) (HPC)
[3] = dose: 400.0 mg/kg/injection, schedule: Q01DX001 (ip), vehicle: Klucel (hydroxypropylcellulose) (HPC)
[4] = dose: 50.0 mg/kg/injection, schedule: Q01DX009 (ip), vehicle: saline with Tween-80
[5] = dose: 100.0 mg/kg/injection, schedule: Q01DX009 (ip), vehicle: saline with Tween-80
[6] = dose: 200.0 mg/kg/injection, schedule: Q01DX009 (ip), vehicle: saline with Tween-80
[7] = dose: 100.0 mg/kg/injection, schedule: Q04DX003 (ip), vehicle: saline with Tween-80
[8] = dose: 200.0 mg/kg/injection, schedule: Q04DX003 (ip), vehicle: saline with Tween-80
[9] = dose: 400.0 mg/kg/injection, schedule: Q01DX009 (ip), vehicle: saline with Tween-80
[10] = dose: 400.0 mg/kg/injection, schedule: Q04DX003 (ip), vehicle: saline with Tween-80
[11] = dose: 100.0 mg/kg/injection, schedule: Q01DX001 (ip), vehicle: saline
[12] = dose: 200.0 mg/kg/injection, schedule: Q01DX001 (ip), vehicle: saline
[13] = dose: 400.0 mg/kg/injection, schedule: Q01DX001 (ip), vehicle: saline
[14] = dose: 25.0 mg/kg/injection, schedule: Q04DX003 (ip), vehicle: Klucel (hydroxypropylcellulose) (HPC)
[15] = dose: 50.0 mg/kg/injection, schedule: Q04DX003 (ip), vehicle: Klucel (hydroxypropylcellulose) (HPC)
[16] = dose: 100.0 mg/kg/injection, schedule: Q04DX003 (ip), vehicle: Klucel (hydroxypropylcellulose) (HPC)
[17] = dose: 200.0 mg/kg/injection, schedule: Q04DX003 (ip), vehicle: Klucel (hydroxypropylcellulose) (HPC)

Measured: T/C

O=c1[nH]c2ccc([As](O)O)cc2[nH]1
inactive: dose: 12.5 mg/kg/injection, schedule: Q01DX009 (ip), vehicle: water 109 % of control | dose: 25.0 mg/kg/injection, schedule: Q01DX009 (ip), vehicle: water 110 % of control | dose: 50.0 mg/kg/injection, schedule: Q01DX001 (ip), vehicle: water 98 % of control | dose: 50.0 mg/kg/injection, schedule: Q01DX009 (ip), vehicle: water 124 % of control | dose: 100.0 mg/kg/injection, schedule: Q01DX001 (ip), vehicle: water 101 % of control | dose: 200.0 mg/kg/injection, schedule: Q01DX001 (ip), vehicle: water 104 % of control | dose: 400.0 mg/kg/injection, schedule: Q01DX001 (ip), vehicle: water 114 % of control

O=c1oc2ccc(F)cc2c2ccccc12
inactive: [1] 92 % of control | [2] 103 % of control | [3] 90 % of control

O=C(O)CSc1cc(Cl)c(Cl)cc1Cl
inactive: dose: 87.5 mg/kg/injection, schedule: Q04DX003 (ip), vehicle: other 100 % of control | dose: 175.0 mg/kg/injection, schedule: Q04DX003 (ip), vehicle: other 110 % of control

O=[N+]([O-])c1cc(Br)cnc1Br
inactive: [1] 100 % of control | dose: 100.0 mg/kg/injection, schedule: Q01DX009 (ip), vehicle: Klucel (hydroxypropylcellulose) (HPC) 101 % of control | [2] 105 % of control | dose: 200.0 mg/kg/injection, schedule: Q01DX009 (ip), vehicle: Klucel (hydroxypropylcellulose) (HPC) 96 % of control | [3] 105 % of control | dose: 400.0 mg/kg/injection, schedule: Q01DX009 (ip), vehicle: Klucel (hydroxypropylcellulose) (HPC) 103 % of control

CC(=O)OC1CC2C=CC1C2 (stereo not given) (tested in a mixture with another compound)
inactive: [4] 89 % of control | [5] 89 % of control | [6] 92 % of control

CC(=O)N/N=C(/C)C(O)(c1ccccc1)c1ccccc1
inactive: [5] 95 % of control | [7] 100 % of control | [6] 92 % of control | [8] 101 % of control | [9] 97 % of control | [10] 101 % of control

CN(C)CCNc1cc([N+](=O)[O-])ccc1[N+](=O)[O-]
inactive: [11] 105 % of control

Cc1ccc(C#N)cc1
inactive: [5] 98 % of control | [7] 94 % of control | [6] 93 % of control | [8] 92 % of control | [9] 98 % of control | [10] 96 % of control

Cc1ccc(S(=O)(=O)N2CC(=O)N(S(=O)(=O)c3ccc(C)cc3)CC2=O)cc1
inactive: dose: 100.0 mg/kg/injection, schedule: Q01DX001 (ip), vehicle: other 106 % of control | dose: 200.0 mg/kg/injection, schedule: Q01DX001 (ip), vehicle: other 103 % of control | dose: 400.0 mg/kg/injection, schedule: Q01DX001 (ip), vehicle: other 106 % of control

Cc1nc2ccccc2c(=O)n1N
inactive: [11] 111 % of control | [12] 105 % of control

c1ccc(P(=NC2CCCCCC2)(c2ccccc2)c2ccccc2)cc1
inactive: dose: 100.0 mg/kg/injection, schedule: Q01DX001 (ip), vehicle: acetone 95 % of control | dose: 200.0 mg/kg/injection, schedule: Q01DX001 (ip), vehicle: acetone 94 % of control

O=C(O)C1=C(C(=O)Nc2cccc3cccnc23)C2C=CC1O2 (stereo not given)
inactive: [11] 96 % of control | [12] 97 % of control | [13] 95 % of control

CC1(C)N=C(N)N=C(N)N1c1ccc(CCc2ccccc2)cc1
inactive: dose: 12.5 mg/kg/injection, schedule: Q01DX009 (ip), vehicle: Klucel (hydroxypropylcellulose) (HPC) 97 % of control | dose: 12.5 mg/kg/injection, schedule: Q04DX003 (ip), vehicle: Klucel (hydroxypropylcellulose) (HPC) 98 % of control | dose: 12.5 mg/kg/injection, schedule: Q04DX003 (ip), vehicle: saline with Tween-80 101 % of control | dose: 25.0 mg/kg/injection, schedule: Q01DX009 (ip), vehicle: Klucel (hydroxypropylcellulose) (HPC) 93 % of control | [14] 104 % of control | dose: 25.0 mg/kg/injection, schedule: Q04DX003 (ip), vehicle: saline with Tween-80 102 % of control | [15] 93 % of control | dose: 50.0 mg/kg/injection, schedule: Q04DX003 (ip), vehicle: saline with Tween-80 104 % of control

Cc1ccc(S(=O)(=O)OCC2CC=CCC2COS(=O)(=O)c2ccc(C)cc2)cc1 (stereo not given)
inactive: [11] 88 % of control | [12] 92 % of control | [13] 88 % of control

Nc1c(Cl)ncnc1Nc1ccc(O)cc1
inactive: [14] 96 % of control | [15] 96 % of control | [16] 101 % of control

CCOC(=O)N1C(=O)C2C3CCC(O3)C2C1=O (stereo not given)
inactive: dose: 25.0 mg/kg/injection, schedule: Q01DX009 (ip), vehicle: saline with Tween-80 107 % of control | [4] 110 % of control

NC(=S)N/N=C1/c2ccccc2-c2cc(Br)ccc21
inactive: [15] 106 % of control | [16] 97 % of control | [17] 100 % of control

CCN=C(c1ccc(NC(=O)c2ccc(C(=O)Nc3ccc(C(=NCC)N(CC)C(C)=O)cc3)cc2)cc1)N(CC)C(C)=O
inactive: dose: 125.0 mg/kg/injection, schedule: Q01DX015 (ip), vehicle: methylcellulose (MC) 95 % of control | dose: 375.0 mg/kg/injection, schedule: Q01DX015 (ip), vehicle: methylcellulose (MC) 104 % of control | dose: 500.0 mg/kg/injection, schedule: Q01DX015 (ip), vehicle: methylcellulose (MC) 103 % of control

O=C(C#Cc1ccccc1)/C=C/c1ccccc1
inactive: [16] 88 % of control | [17] 98 % of control

CNCC(O)c1cccc(O)c1 (stereo not given)
inactive: dose: 1.56 mg/kg/injection, schedule: Q01DX009 (ip), vehicle: saline 94 % of control | dose: 3.12 mg/kg/injection, schedule: Q01DX009 (ip), vehicle: saline 98 % of control | dose: 3.12 mg/kg/injection, schedule: Q04DX003 (ip), vehicle: saline 109 % of control | dose: 6.25 mg/kg/injection, schedule: Q01DX009 (ip), vehicle: saline 94 % of control | dose: 6.25 mg/kg/injection, schedule: Q04DX003 (ip), vehicle: saline 104 % of control | dose: 12.5 mg/kg/injection, schedule: Q01DX009 (ip), vehicle: saline 122 % of control | dose: 12.5 mg/kg/injection, schedule: Q04DX003 (ip), vehicle: saline 96 % of control | dose: 25.0 mg/kg/injection, schedule: Q01DX009 (ip), vehicle: saline 100 % of control | dose: 25.0 mg/kg/injection, schedule: Q04DX003 (ip), vehicle: saline 113 % of control

CN(C)c1nc(N)c(C#N)c(C#N)c1C#N
inactive: dose: 50.0 mg/kg/injection, schedule: Q01DX001 (ip), vehicle: saline 96 % of control | [11] 96 % of control | [12] 100 % of control

CCOC(=O)C1C(=O)CC(=O)C(C(=O)OCC)C1c1cc(OC)c(OC)c(OC)c1 (stereo not given)
inactive: dose: 100.0 mg/kg/injection, schedule: Q04DX002 (ip), vehicle: Klucel (hydroxypropylcellulose) (HPC) 91 % of control | dose: 200.0 mg/kg/injection, schedule: Q04DX002 (ip), vehicle: Klucel (hydroxypropylcellulose) (HPC) 91 % of control | dose: 400.0 mg/kg/injection, schedule: Q04DX002 (ip), vehicle: Klucel (hydroxypropylcellulose) (HPC) 94 % of control

NC(=O)N/N=C\C=N/NC(N)=O
inactive: [1] 92 % of control | [2] 92 % of control

Reference: PubChem BioAssay AID248 (DTP/NCI, 2004)
